Experimental data from patent US8063025B2, “Nucleoside prodrugs and uses thereof” (Metabasis Therapeutics, Inc., priority 2007, dated 2011).
Read-outs that look alike come from different tables or passages of the source. Values belong to the compound of their own block, whether it stands above or below them.

Legend:
[1] = system: HCV; conditions: chimpanzee, 7 days, cited from earlier work
[2] = system: rat hepatocytes; test: NTP generation in rat hepatocytes; type: in vitro ADME, male Wistar rats; conditions: for Rat hepatocyte NTP: Table 2
Protocol: Hepatocytes were prepared from male Wistar rats (250-300 g) according to the procedure of Berry and Friend (Berry, M. N.; Friend, D. S. J. Cell Biol. 1969, 43, 506-520) as modified by Groen (Groen, A. K.; Sips, H. J.; Vervoom, R. C.; Tager, J. M. Eur. J. Biochem. 1982, 122, 87-93). Hepatocytes (20 mg/mL wet weight, >85% trypan blue viability) were incubated at 37° C. in 2 mL of Krebs-bicarbonate buffer containing 20 mM glucose, and 1 mg/mL BSA for 2 h in the presence of 10 μM nucleoside or prodrug (from 10 mM stock solutions in DMSO, n>4).
Following the incubation of 4′-azidocytidine analogues, 1600 μL aliquot of the cell suspension was centrifuged and 300 μL of acetonitrile was added to the pellet, vortexed and sonicated until the pellet broke down. Then 200 μL of water was added to make a 60% acetonitrile solution. After 10 min centrifugation at 14,000 rpm, the resulting supernatant was transferred to a new vial and evaporated to near dryness in a Savant SpeedVac Plus at room temperature. The dried residue was reconstituted with 200 μL of water and the mixture was centrifuged for 10 min at 14,000 rpm. A mixture of 35 μL aliquot of supernatant and 35 μL of mobile phase A (20 mM N—N-dimethylhexylamine and 10 mM propionic acid in 20% methanol) was analyzed by LC-MS/MS (Applied Biosystems, API 4000) equipped with an Agilent 1100 binary pump and a LEAP injector. NTP was detected by using MS/MS mode (M-/78.8) and quantified based on comparison to a standard of 2′-C-methyladenosine-5′-triphosphate for 4′-azidocytidine and the compound described in Example 1.
Following incubation of the 4′-azidouridine analogues, 1600 μL aliquot of the cell suspension was centrifuged and 500 μL of acetonitrile containing 0.1 mg/mL dicyclohexylcarbodiimide (DCCD) and 0.1% ammonium hydroxide was added to the pellet and vigorously mixed by vortexing. Liver extracts were analyzed by LC-MS/MS using a Luna NH2 column (5 micron, 2×50 mm, Phenomenex) fitted with a SecurityGuard C18 guard column (5 micron, 4.0×2.0 mm, Phenomenex) and eluted with a gradient from mobile phase A (10 mM ammonium acetate in 50% acetonitrile) to B (1 mM ammonium acetate in 50% acetonitrile containing 1% concentrated ammonium hydroxide) at a flow rate of 0.6 mL/min. The injector temperature was set at 4° C. 4′-AUMP, 4′-AUDP, and […] were detected using the MS/MS mode (364.1/150.8 for 4′-AUMP, 444.1/176.8 for 4′-AUDP, and 524.1/158.9 for 4′-AUTP) and quantified by comparison of peak areas to standard curves obtained by spiking known concentrations of the analytes to blank liver extract.

[3] = system: hepatitis C virus replicon; conditions: cited from earlier work
[4] = Evaluation of liver NTP levels in rat; type: in vivo, Sprague-Dawley or Wistar rats; conditions: i.v. administration as printed
[5] = Rat portal vein pharmacokinetic study; set-up: species or system Male Hanover-Wistar (HW) rats; conditions: in vivo, 7 mg/kg
Protocol: Pharmacokinetic analysis of the esters was carried out as described in Example 2. The calculated value for % Fhepatic is the ratio of measured of the quantity present in the post-hepatic
[formula] circulation (AUCjugular) to the pre-hepatic concentration (AUCportal). This value reflects uptake of the prodrug by hepatocytes. […] These values reflect observed concentrations of non-esterified drug phosphate 26a. The calculated value % Fgut is the ratio of the concentration
[formula] of 26a observed in the portal vein which directly reflects absorption through the gut compared to the concentration observed in the jugular vein after i.v. administration of the same dose. Increased absorption through the gut will increase the observed % Fgut.
Male Hanover-Wistar (HW) rats were obtained from Charles River Laboratories (Wilmington, Mass.). […] Plasma samples were extracted by protein precipitation and analyzed by liquid chromatography coupled to tandem mass spectrometry (LC/MS/MS) for concentrations of 26b, 26a and 20.
Pharmacokinetic parameters were calculated using a non-compartmental model in Watson software (Watson, Thermo Fisher, Waltham, Mass.). % Fhepatic was calculated from the dose-normalized area under the curve (AUC) values obtained from sampling either the portal or jugular vein after PO administration as follows: […]

[6] = biological target: T1, HCV polymerase (NS5B570n-Con1) (Hepatitis C virus genotype 1b, UniProt Q9WMX2); test: HCV NS5B RNA polymerase activity; type: biochemical, HCV Con1 strain
T1 construct: contains a 21 amino acid deletion at the C-terminus relative to the full-length HCV polymerase; 6-histidine (N); made in house; host or cells: E. coli BL21 (DE) pLysS, plasmid pET17b
Protocol: The enzymatic activity of HCV polymerase (NS5B570n-Con1) was measured as the incorporation of radiolabeled nucleotide monophosphates into acid insoluble RNA products. Unincorporated radiolabeled substrate was removed by filtration and scintillant was added to the washed and dried filter plate containing radiolabeled RNA product. The amount of RNA product generated by NS5B570-Con1 at the end of the reaction was directly proportional to the amount of light emitted by the scintillant.
The N-terminal 6-histidine tagged HCV polymerase, derived from HCV Con1 strain, genotype 1b (NS5B570n-Con1) contains a 21 amino acid deletion at the C-terminus relative to the full-length HCV polymerase and was purified from E. coli strain BL21 (DE) pLysS. The construct, containing the coding sequence of HCV NS5B Con1 (GenBank accession number AJ242654) was inserted into the plasmid construct pET17b, downstream of a T7 promoter expression cassette and transformed into E. coli. […]
The amount of light emitted from the scintillant was converted to counts per minute (CPM) on a Topcount® plate reader (Perkin-Elmer, Energy Range: Low, Efficiency Mode: Normal, Count Time: 1 min, Background Subtract: none, Cross talk reduction: Off).
Data was analyzed in Excel® (Microsoft®) and ActivityBase® (Idbs®). […] All data was expressed as a percentage of the positive control. […]

[7] = system: HCV; conditions: phase 2 study, 1500 mg BID for 14 days; cited from earlier work

Compound: C[C@@]1(O)[C@H](O)[C@@H](CO)O[C@H]1n1ccc2c(N)ncnc21 [MK-0608]
- reduction in viral titer ([1]; intravenous dose of 2 mg/kg/day): > 5 log10

Compound: CC(C)C(N)C(=O)O[C@@H]1[C@@H](CO)O[C@@H](n2ccc(N)nc2=O)[C@]1(C)O (some centres unmarked) [NM283]
- reduction in viral titer ([1]; 16.6 mg/kg/day): 1.15 log10

Compound: [N-]=[N+]=N[C@]1(CO)O[C@@H](n2ccc(N)nc2=O)[C@H](O)[C@@H]1O [Example R1479, 4′-azidocytidine]
- Rat hepatocyte NTP ([2]; 10 μM): <LOQ
- nmol NTP/g @ 10 μM (±SEM) ([2]; rat hepatocytes, 10 μM, 2 h, Table 4): <LOQ
- EC50 [3]: 1280 nM
- potency in the cell-based replicon assay [3]: reasonable potency

Compound: C[C@H](NP(=O)(OC[C@@]1(N=[N+]=[N-])O[C@@H](n2ccc(=O)[nH]c2=O)[C@H](O)[C@@H]1O)Oc1cccc2ccccc12)C(=O)OCc1ccccc1 (some centres unmarked) [Example R0142]
- EC50 [3]: 220 nM

Compound: [N-]=[N+]=N[C@]1(CO)O[C@@H](n2ccc(=O)[nH]c2=O)[C@H](O)[C@@H]1O [4′-azidouridine]
- Rat hepatocyte NTP ([2]; 10 μM): <LOQ
- EC50 [3]: > 100000 nM
- potency in the cell-based replicon assay [3]: inactive

- nucleoside triphosphate levels in treated rat hepatocytes [2]: dose dependent increase
- NTP levels after administration to a rat [4]: elevated levels
Compound: [N-]=[N+]=N[C@]1(CO[P@@]2(=O)OCC[C@@H](c3cccc(Cl)c3)O2)O[C@@H](n2ccc(=O)[nH]c2=O)[C@H](O)[C@@H]1O [Example 2, 4′-azido-cis-5′-O-[4-(S)-(3-Chlorophenyl)-2-oxo-1,3,2-dioxaphosphorinan-2-yl]uridine]

- circulating diester after oral dosing [5]: no circulating diester is observed
Compound: [N-]=[N+]=N[C@]1(COP2(=O)OCC[C@@H](c3ccc(Br)cc3F)O2)O[C@@H](n2ccc(=O)[nH]c2=O)[C@H](O)[C@@H]1O (some centres unmarked) [Example 43]

Compound: [N-]=[N+]=N[C@]1(COP(=O)(O)O)O[C@@H](n2ccc(=O)[nH]c2=O)[C@H](O)[C@@H]1O [4′-AU monophosphate]
- IC50 [6]: 218 nM

- nucleoside triphosphate levels in treated rat hepatocytes [2]: dose dependent increase
- NTP levels after administration to a rat [4]: very low levels
Compound: [N-]=[N+]=N[C@]1(CO[P@@]2(=O)OCC[C@@H](c3cccc(Cl)c3)O2)O[C@@H](n2ccc(N)nc2=O)[C@H](O)[C@@H]1O [Example 1, 4′-azido-cis-5′-O-[4-(S)-(3-chlorophenyl)-2-oxo-1,3,2-dioxaphosphorinan-2-yl]-cytidine]

Compound: CC(C)C(=O)OC[C@@]1(N=[N+]=[N-])O[C@@H](n2ccc(N)nc2=O)[C@H](OC(=O)C(C)C)[C@@H]1OC(=O)C(C)C [Example R1626]
- mean reduction in serum viral titer [7]: 1.2 log10
